Measurements taken from patent publication US8853258B2, “C-linked hydroxamic acid derivatives useful as antibacterial agents” (Pfizer Inc., priority 2009, dated 2014).
Values after ≈ are worked out from the molar mass of the structure shown. Read-outs that look alike come from different tables or passages of the source.

Legend:
[1] = tested on: Escherichia coli EC-1: VOGEL, mouse virulent; test: MIC determination (CLSI), EC-1; type: cell-based; conditions: for MIC: Escherichia coli
Method in brief: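 E. coli Vogel, a mouse-virulent strain (EC-1), was tested. MICs were set by dilution susceptibility testing per CLSI standards M7-A7/M100-S18.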

[2] = tested on: Acinetobacter baumanii/haemolyticus: Multidrug-resistant clinical isolate (AB-3167); test: MIC determination (CLSI), AB-3167; type: cell-based; conditions: for MIC: Acinetobacter baumannii
Method in brief: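 Multidrug-resistant clinical isolate AB-3167 (A. baumannii/haemolyticus) tested for minimum inhibitory concentration following CLSI dilution susceptibility standards M7-A7 and M100-S18.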

[3] = tested on: Klebsiella pneumoniae: Ciprofloxacin-resistant isolate, ESBL, clinical isolate (KP-3700); test: MIC determination (CLSI), KP-3700; type: cell-based
Method in brief: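 Strain KP-3700, a clinical isolate producing extended-spectrum β-lactamases and resistant to ciprofloxacin, was tested. Minimum inhibitory concentrations determined via CLSI dilution methodology (M7-A7; M100-S18).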

[4] = target: Pseudomonas aeruginosa LpxC enzyme (Pseudomonas aeruginosa (strain ATCC 15692 / DSM 22644 / CIP 104116 / JCM 14847 / LMG 12228 / 1C / PRS 101 / PAO1), UniProt P47205); test: IC50 Assay, LpxC Enzyme from P. aeruginosa (PA LpxC Enzyme IC50); type: biochemical
Procedure: In order to assess the compounds biological activity, selected in-vitro assays were conducted on selected compounds. One of the assays measured the compounds ability to disrupt the synthesis of lipopolysaccharide, LPS, which is a component of the outer membrane of Gram-negative bacteria. Disruption of this synthesis is lethal to the bacteria. The assay determined the compound's ability to inhibit LpxC, which is the first enzyme in the biosynthetic pathway for LPS (measured as IC50). Additionally, MICs (minimal inhibitory concentrations) were determined for several bacteria. The specific protocols are described below:
A) IC50 Assay, LpxC Enzyme from P. aeruginosa (Labled as PA LpxC Enzyme IC50
At the end of 1 hour, 5 ul of 1N HCl was added to stop the enzyme reaction; the plates were centrifuged, and then processed with the BioTrove Rapidfire HTMS Mass Spectrometry System. A no-enzyme control was used in calculating the IC50 values from the percent conversion values.

[5] = tested on: Pseudomonas aeruginosa UI-18: Wild-type (PA-7); test: MIC determination (CLSI), PA-7; type: cell-based; conditions: for MIC: Pseudomonas aeruginosa
Method in brief: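 Wild-type P. aeruginosa UI-18 tested for minimum inhibitory concentration. Broth/agar dilution following CLSI standards (M7-A7, M100-S18).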

[6] = Escherichia coli EC-1 VOGEL, mouse virulent
[7] = Acinetobacter baumanii/haemolyticus multidrug-resistant clinical isolate AB-3167
[8] = P. aeruginosa LpxC enzyme, read-out: PA LpxC enzyeme IC50
[9] = Pseudomonas aeruginosa UI-18 wild-type PA-7
[10] = Table 3, read-out: PA LpxC enzyeme IC^50
[11] = Acinetobacter baumanii/haemolyticus AB-3167
[12] = Pseudomonas aeruginosa UI-18 (PA-7)

Compound | EC-1 MIC [1, 6] | AB-3167 MIC [2, 7] | KP-3700 MIC [3] | IC50 [4, 8] [nM] | PA-7 MIC [5, 9] | MIC ([1]; read-out: EC-1 MIC) [µg/mL] | MIC ([2]; Table 3, read-out: AB-3167 MIC) [µg/mL] | IC50 [4, 10] [nM] | MIC ([5]; Table 3, read-out: PA-7 MIC) [µg/mL] | also measured
CC(CCc1ccc(-c2ccc3c(c2)C(=O)NC3)cc1F)(C(=O)NO)S(C)(=O)=O (stereo not drawn) [Example 196] | 4 µg/mL | ≧64 mg/L | 16 µg/mL | 0.631 | 4 µg/mL |  |  |  |  | 
CC(CCc1ccc(OCc2nc(-c3cccc(Cl)c3)no2)cc1)(C(=O)NO)S(C)(=O)=O (stereo not drawn) [Example 298, 4-(4-{[3-(3-chlorophenyl)-1,2,4-oxadiazol-5-yl]methoxy}phenyl)-N-hydroxy-2-methyl-2-(methylsulfonyl)butanamide] |  |  | 32 µg/mL |  |  | 16 (≈ 33.3 µM) | 16 (≈ 33.3 µM) | 1.66 | 32 (≈ 66.7 µM) | 
CC(CCc1ccc(-c2ccc(Cl)cc2)cc1)(C(=O)NO)S(C)(=O)=O (stereo not drawn) [Example 44] | 0.5 µg/mL | 16 µg/mL | 1 µg/mL | 0.0669 | 0.5 µg/mL |  |  |  |  | 
CC(=O)Nc1ccc(-c2ccc(CC[C@](C)(C(=O)NO)S(C)(=O)=O)cc2)cc1 [Example 205] |  |  | 32 µg/mL | 1.74 |  |  |  |  |  | EC-1 MIC ([1]; Escherichia coli EC-1): 16 µg/mL; AB-3167 MIC [2, 11]: ≧64 mg/L; PA-7 MIC [5, 12]: 4 µg/mL
C[C@@](CCc1ccc(-c2ccc(OCC(=O)N3CC(O)C3)cc2)cc1)(C(=O)NO)S(C)(=O)=O [Example 223] |  |  | 32 µg/mL | 0.507 |  |  |  |  |  | EC-1 MIC ([1]; Escherichia coli EC-1): 16 µg/mL; AB-3167 MIC [2, 11]: ≧64 mg/L; PA-7 MIC [5, 12]: 8 µg/mL
Cc1ccc(Cc2noc(COc3ccc(CCC(C)(C(=O)NO)S(C)(=O)=O)cc3)n2)cc1 (stereo not drawn) [Example 283, N-hydroxy-2-methyl-4-(4-{[3-(4-methylbenzyl)-1,2,4-oxadiazol-5-yl]methoxy}phenyl)-2-(methylsulfonyl)butanamide] |  |  | ≧64 mg/L |  |  | 16 (≈ 33.8 µM) | ≥ 64 | 6.32 | ≥ 64 | 
CC(CCc1ccc(-c2ccc(OCCO)cc2)cc1)(C(=O)NO)S(C)(=O)=O (stereo not drawn) [Example 113] | 2 µg/mL | ≧64 mg/L | 8 µg/mL | 0.148 | 1 µg/mL |  |  |  |  | 
CC(=O)Nc1ccc(-c2ccc(CCC(C)(C(=O)NO)S(C)(=O)=O)cc2F)cc1 (stereo not drawn) [Example 207] |  |  | ≧64 mg/L | 7.09 |  |  |  |  |  | EC-1 MIC ([1]; Escherichia coli EC-1): 32 µg/mL; AB-3167 MIC [2, 11]: ≧64 mg/L; PA-7 MIC [5, 12]: 16 µg/mL
Cc1cc(-c2ccc(C#N)cc2)ccc1CCC(C)(C(=O)NO)S(C)(=O)=O (stereo not drawn) [Example 161] | 1 µg/mL | ≧64 mg/L | 16 µg/mL | 0.725 | 4 µg/mL |  |  |  |  | 
COc1cccc(-c2ccc(CC[C@](C)(C(=O)NO)S(C)(=O)=O)cc2)c1 [Example 170] | ≧64 mg/L | 16 µg/mL | ≧64 mg/L | 54 | ≧64 mg/L |  |  |  |  | 
CC(=O)c1ccc(-c2ccc(CC[C@](C)(C(=O)NO)S(C)(=O)=O)cc2)nc1 [Example 189] | 16 µg/mL | ≧64 mg/L | 16 µg/mL | 0.711 | 4 µg/mL |  |  |  |  | 
COc1cc(COc2ccc(CCC(C)(C(=O)NO)S(C)(=O)=O)cc2)cc(OC)c1 (stereo not drawn) [Example 244, 4-{4-[(3,5-dimethoxybenzyl)oxy]phenyl}-N-hydroxy-2-methyl-2-(methylsulfonyl)butanamide] |  |  | 16 µg/mL |  |  | 4 (≈ 9.14 µM) | ≥ 64 | 5 | ≥ 64 | 
CC(CCc1ccc(-c2ccc(C(=O)CO)cc2)cc1)(C(=O)NO)S(C)(=O)=O (stereo not drawn) [Example 169] | 2 µg/mL | 32 µg/mL | 4 µg/mL | 0.2 | 1 µg/mL |  |  |  |  | 
CC(CCc1ccc(OCc2cccc3cccnc23)cc1)(C(=O)NO)S(C)(=O)=O (stereo not drawn) [Example 296, N-hydroxy-2-methyl-2-(methylsulfonyl)-4-[4-(quinolin-8-ylmethoxy)phenyl]butanamide] |  |  | 16 µg/mL |  |  | 8 (≈ 18.7 µM) | 32 (≈ 74.7 µM) | 15.8 | ≥ 64 | 
Cc1cc(CCC(C)(C(=O)NO)S(C)(=O)=O)ccc1-c1ccc(F)cc1 (stereo not drawn) [Example 160] | 2 µg/mL | 16 µg/mL | 8 µg/mL | 2.54 | 4 µg/mL |  |  |  |  | 
COc1cc(CCC(C)(C(=O)NO)S(C)(=O)=O)ccc1-c1ccccc1 (stereo not drawn) [Example 171] | 4 µg/mL | ≧64 mg/L | 16 µg/mL | 14.6 | 32 µg/mL |  |  |  |  | 
CC(C)CCOc1ccc(CCC(C)(C(=O)NO)S(C)(=O)=O)cc1 (stereo not drawn) [Example 292, N-hydroxy-2-methyl-4-[4-(3-methylbutoxy)phenyl]-2-(methylsulfonyl)butanamide] |  |  | ≧64 mg/L |  |  | 16 (≈ 44.8 µM) | 16 (≈ 44.8 µM) | 1.11 | 8 (≈ 22.4 µM) | 
CC(CCc1ccc(OCc2nc(-c3cccnc3)no2)cc1)(C(=O)NO)S(C)(=O)=O (stereo not drawn) [Example 305, N-hydroxy-2-methyl-2-(methylsulfonyl)-4-{4-[(3-pyridin-3-yl-1,2,4-oxadiazol-5-yl)methoxy]phenyl}butanamide] |  |  | ≧64 mg/L |  |  | 32 (≈ 71.7 µM) | ≥ 64 | 7.53 | 32 (≈ 71.7 µM) | 
CC(C)CCc1noc(COc2ccc(CCC(C)(C(=O)NO)S(C)(=O)=O)cc2)n1 (stereo not drawn) [Example 272, N-hydroxy-2-methyl-4-(4-{[3-(3-methylbutyl)-1,2,4-oxadiazol-5-yl]methoxy}phenyl)-2-(methylsulfonyl)butanamide] |  |  | ≧64 mg/L |  |  | 32 (≈ 72.8 µM) | ≥ 64 | 1.54 | ≥ 64 | 
CCCCCc1noc(COc2ccc(CCC(C)(C(=O)NO)S(C)(=O)=O)cc2)n1 (stereo not drawn) [Example 295, N-hydroxy-2-methyl-2-(methylsulfonyl)-4-{4-[(3-pentyl-1,2,4-oxadiazol-5-yl)methoxy]phenyl}butanamide] |  |  | ≧64 mg/L |  |  | 32 (≈ 72.8 µM) | ≥ 64 | 12.5 | ≥ 64 | 
CC(CCc1ccc(-c2ccc(C#N)cc2)cc1F)(C(=O)NO)S(C)(=O)=O (stereo not drawn) [Example 168] | 1 µg/mL | ≧64 mg/L | 2 µg/mL | 0.427 | 1 µg/mL |  |  |  |  | 
CC(CCc1ccc(-c2ccc3nonc3c2)cc1)(C(=O)NO)S(C)(=O)=O (stereo not drawn) [Example 174] | 4 µg/mL | ≧64 mg/L | 8 µg/mL | 0.54 | 2 µg/mL |  |  |  |  | 
CC(CCc1ccc(OCc2ccc(S(C)(=O)=O)cc2)cc1)(C(=O)NO)S(C)(=O)=O (stereo not drawn) [Example 309, N-hydroxy-2-methyl-2-(methylsulfonyl)-4-(4-{[4-(methylsulfonyl)benzyl]oxy}phenyl)butanamide] |  |  | 16 µg/mL |  |  | 8 (≈ 17.6 µM) | ≥ 64 | 1.21 | 8 (≈ 17.6 µM) | 
CC(CCc1ccc(OCc2c(F)cc(F)cc2F)cc1)(C(=O)NO)S(C)(=O)=O (stereo not drawn) [Example 293, N-hydroxy-2-methyl-2-(methylsulfonyl)-4-{4-[(2,4,6-trifluorobenzyl)oxy]phenyl}butanamide] |  |  | 32 µg/mL |  |  | 4 (≈ 9.27 µM) | 32 (≈ 74.2 µM) | 0.955 | 4 (≈ 9.27 µM) | 
CC(=O)c1ccc(-c2ccc(CCC(C)(C(=O)NO)S(C)(=O)=O)cc2)cc1O (stereo not drawn) [Example 181] | 0.5 µg/mL | 8 µg/mL | 8 µg/mL | 0.138 | 2 µg/mL |  |  |  |  | 
CC(=O)c1ccc(-c2ccc(CCC(C)(C(=O)NO)S(C)(=O)=O)cc2)cc1 (stereo not drawn) [Example 108] | 0.5 µg/mL | 32 µg/mL | 2 µg/mL | 0.176 | 0.5 µg/mL |  |  |  |  | 
Cc1cc(-c2ccccc2)ccc1CCC(C)(C(=O)NO)S(C)(=O)=O (stereo not drawn) [Example 1, N-Hydroxy-2-methyl-4-(3-methylbiphenyl-4-yl)-2(methylsulfonyl)butanamide] |  |  | 8 µg/mL |  |  |  |  |  |  | MIC ([1]; read-out: EC-1: (MIC)): 2 µg/mL (≈ 5.53 µM); MIC ([2]; Table 1, MIC, read-out: AB-3167 (MIC)): 16 µg/mL (≈ 44.3 µM); IC50 ([4]; Table 1, read-out: PA LpxC enzyeme IC50): 1.68 nM; MIC ([5]; Table 1, MIC, read-out: PA-7 (MIC)): 4 µg/mL (≈ 11.1 µM)
